Data taken from patent US11911353B2, “Fatty acid synthase inhibitor and application thereof” (Jiangnan University, priority 2019, dated 2024).

What was measured:
Format in all cases: cell-based
[1] = test system: colon cancer cells HCT116; test: MTT tumor proliferation IC50, HCT116
Description: (§1) IC50 (half maximal inhibitory concentration) refers to the half inhibitory concentration of a measured antagonist. It can indicate that a certain concentration of a certain drug or substance (inhibitor) induces tumor cell apoptosis by 50%, and this concentration is referred to as 50% inhibitory concentration, namely, the corresponding concentration when the ratio of apoptotic cells to the total number of cells is equal to 50%. The IC50 value can be used to measure the ability of a drug to induce apoptosis, that is, the higher the inducing ability, the lower the value, which also can indicate the tolerance degree of a certain cell to a drug on the contrary. • (1) Cells in the logarithmic phase are collected, the concentration of a cell suspension is adjusted, it is appropriate to place 100 μl cells in each well of a 96-well plate, the cells are inoculated into the plate to adjust the density of to-be-detected cells to be 1000-10000 cells/well, and edge wells are filled with sterile PBS. • (2) The cells are incubated under 5% CO2 at 37° C., an original culture medium is discarded after complete cell adherence, 200 μl of 1 wt % FBS culture medium containing 0.01 μM, 0.1 μM, 1 μM, 5 μM and 10 μM compound I-1 or cerulenin is added into each well, and there are 6 wells run in duplicate. An equal volume of DMSO is added as a negative control. • (3) After 72 hours of incubation, the cells are photographed for state recording, an original culture medium is discarded, and 100 μl of serum-free culture medium containing 0.5 mg/ml MTT (3-(4,5-dimethylthiazole-2)-2,5-diphenyltetrazolium bromide, trade name thiazolyl blue) is added into each well. • (4) After 2-4 hours of incubation, an original culture medium is discarded, and 150 μl of dimethyl sulfoxide (DMSO) is added into each well and shaken at 300 rpm for 10 minutes to fully dissolve purple crystals. • (5) The absorbance of each well at OD570 nm is measured by an enzyme-linked immunodetection instrument, the absorbance at OD630 nm is used as a reference, dual-wavelength measurement is carried out, and survival rate results are calculated according to the following formula: Cell survival rate=(OD570−OD630)/(OD570 negative control−OD630 negative control);
(§2) wherein, OD570: OD570 value of each treatment group; OD630: OD630 value of each treatment group; OD570 control: OD570 value of the negative control group; OD630 control: OD630 value of the negative control group. • (6) The survival rate results are processed with graphpad 6.0 software according to the concentration gradient, the analysis mode is log (inhibitor) vs. Nonlinear regression (curve fit), and the calculated IC50 value is expressed as x+/−SD.
(§3) The FASN enzyme activity measurement method shown in Experimental Example 18 is used to detect the effects of different substances on FASN enzyme activity. The method shown in Experimental Example 19 is used to detect the effects of different substances on the proliferation of tumor cells, cerulenin is used as a control, and the inhibition rates (%) of different substances on FASN enzyme activity and inhibition rates (IC50 nM) on tumor proliferation are calculated.

[2] = target: T1, fatty acid synthase (FASN) in colon cancer cells HCT116 (Homo sapiens, UniProt P49327); test: FASN enzyme activity detection in treated HCT116 cells (NADPH absorbance at 340 nm); details: for inhibition at 20 µM: HCT-116, 4 hours of incubation, read-out: FASN enzyme activity inhibition rate (%)
T1 construct: endogenous in cells; host or cells: HCT116 colon cancer cells
T1 sequence (P49327 whole entry): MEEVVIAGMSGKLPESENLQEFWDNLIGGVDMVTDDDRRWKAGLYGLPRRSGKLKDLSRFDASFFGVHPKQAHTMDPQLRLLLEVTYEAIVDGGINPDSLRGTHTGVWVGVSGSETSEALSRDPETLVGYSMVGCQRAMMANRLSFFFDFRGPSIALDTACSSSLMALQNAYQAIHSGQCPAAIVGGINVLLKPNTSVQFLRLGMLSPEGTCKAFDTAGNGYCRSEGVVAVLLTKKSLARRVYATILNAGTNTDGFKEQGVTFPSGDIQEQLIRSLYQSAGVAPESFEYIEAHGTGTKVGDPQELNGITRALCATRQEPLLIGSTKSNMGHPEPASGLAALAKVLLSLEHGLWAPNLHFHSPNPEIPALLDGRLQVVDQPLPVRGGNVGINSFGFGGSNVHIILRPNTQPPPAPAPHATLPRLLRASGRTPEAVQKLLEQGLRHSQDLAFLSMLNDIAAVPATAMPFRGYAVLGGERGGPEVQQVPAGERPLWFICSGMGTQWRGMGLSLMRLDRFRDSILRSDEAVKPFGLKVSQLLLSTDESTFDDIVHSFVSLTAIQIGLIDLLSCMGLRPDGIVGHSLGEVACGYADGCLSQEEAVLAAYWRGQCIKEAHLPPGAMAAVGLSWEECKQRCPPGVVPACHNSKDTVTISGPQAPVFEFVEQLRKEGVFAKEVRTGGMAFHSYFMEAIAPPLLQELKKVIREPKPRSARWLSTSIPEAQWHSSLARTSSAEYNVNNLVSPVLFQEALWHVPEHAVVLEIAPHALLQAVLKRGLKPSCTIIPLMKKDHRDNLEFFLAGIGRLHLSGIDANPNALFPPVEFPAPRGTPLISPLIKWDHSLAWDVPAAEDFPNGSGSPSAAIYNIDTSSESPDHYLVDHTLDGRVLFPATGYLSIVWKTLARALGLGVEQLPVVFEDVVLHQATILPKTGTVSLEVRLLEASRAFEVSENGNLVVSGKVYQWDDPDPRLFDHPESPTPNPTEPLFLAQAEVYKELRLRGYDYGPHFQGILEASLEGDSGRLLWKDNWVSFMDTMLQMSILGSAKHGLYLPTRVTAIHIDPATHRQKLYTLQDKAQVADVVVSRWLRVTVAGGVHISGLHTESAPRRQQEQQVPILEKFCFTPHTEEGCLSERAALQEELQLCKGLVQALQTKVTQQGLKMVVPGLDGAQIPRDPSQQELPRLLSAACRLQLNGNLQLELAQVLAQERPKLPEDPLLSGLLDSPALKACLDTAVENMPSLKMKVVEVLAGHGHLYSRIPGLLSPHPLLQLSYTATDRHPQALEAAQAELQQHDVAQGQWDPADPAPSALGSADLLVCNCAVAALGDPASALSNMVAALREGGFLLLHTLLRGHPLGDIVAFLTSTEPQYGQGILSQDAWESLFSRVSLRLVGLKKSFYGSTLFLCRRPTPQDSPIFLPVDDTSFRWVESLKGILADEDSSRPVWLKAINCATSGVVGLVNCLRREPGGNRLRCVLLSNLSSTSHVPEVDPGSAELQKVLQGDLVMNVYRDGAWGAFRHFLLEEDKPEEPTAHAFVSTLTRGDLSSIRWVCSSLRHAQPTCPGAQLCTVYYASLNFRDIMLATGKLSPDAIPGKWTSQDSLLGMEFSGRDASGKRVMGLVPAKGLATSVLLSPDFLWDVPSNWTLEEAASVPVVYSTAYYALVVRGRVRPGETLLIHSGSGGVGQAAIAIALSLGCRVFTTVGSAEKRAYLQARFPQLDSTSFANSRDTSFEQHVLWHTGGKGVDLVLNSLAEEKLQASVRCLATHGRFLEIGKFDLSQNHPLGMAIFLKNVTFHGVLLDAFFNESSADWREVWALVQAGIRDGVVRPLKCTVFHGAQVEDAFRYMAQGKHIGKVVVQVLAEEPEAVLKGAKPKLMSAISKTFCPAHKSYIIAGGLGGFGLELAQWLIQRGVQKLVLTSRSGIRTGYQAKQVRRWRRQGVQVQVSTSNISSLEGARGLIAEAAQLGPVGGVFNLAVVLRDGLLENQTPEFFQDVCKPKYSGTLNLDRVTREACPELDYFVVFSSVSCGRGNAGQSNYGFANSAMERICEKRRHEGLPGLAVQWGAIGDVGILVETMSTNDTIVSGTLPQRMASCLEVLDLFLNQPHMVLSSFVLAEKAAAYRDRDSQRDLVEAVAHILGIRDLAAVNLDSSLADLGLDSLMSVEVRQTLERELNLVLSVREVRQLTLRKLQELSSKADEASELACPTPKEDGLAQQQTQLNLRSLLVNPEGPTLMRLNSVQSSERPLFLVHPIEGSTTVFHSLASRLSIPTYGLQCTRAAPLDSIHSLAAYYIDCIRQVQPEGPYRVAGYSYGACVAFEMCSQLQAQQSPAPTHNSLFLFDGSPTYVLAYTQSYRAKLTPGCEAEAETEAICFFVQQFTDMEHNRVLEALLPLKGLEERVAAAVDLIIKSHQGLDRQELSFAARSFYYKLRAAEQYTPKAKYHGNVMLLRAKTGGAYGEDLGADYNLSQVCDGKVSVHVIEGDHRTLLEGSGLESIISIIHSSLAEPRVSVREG

[3] = test system: prostate cancer cells PC-3; test: MTT tumor proliferation IC50, PC-3; details: 72 hours of incubation
Description: as §1, §2, §3

[4] = test system: tumor cells 22RV1, PC-3, HT-29, Hela, Hep G2, CaCo-2 and HCT116; test: MTT proliferation of various tumor cells at single concentration (FIG. 2); details: 10 μM, 72 hours, 7 different tumor cells
Description: Cell survival rate=(OD570−OD630)/(OD570 negative control−OD630 negative control); wherein, OD570: OD570 value of each treatment group; OD630: OD630 value of each treatment group; OD570 control: OD570 value of the negative control group; OD630 control: OD630 value of the negative control group.

[5] = Homo sapiens, HCT-116, 72 hours of incubation

Molecule | IC50 ([1]; 72 hours of incubation) [nM] | FASN enzyme activity inhibition rate (%) ([2]; 20 μM, 4 hours of incubation) | IC50 [3] [nM] | effect on proliferation of tumor cells [4] | IC50 [1, 5] [nM] | inhibition at 20 µM [2] [%]
5-(4-bromophenylamino)-5-oxopentanoic acid [Intermediate 1] | 19 ± 2.1 | 31.87 | 15 ± 1.3 |  |  | 
C=C1C(=O)OC(CCCCCCCC)C1C(=O)O (centres unmarked) [Compound C75, C75] |  |  |  | no significant effect on the proliferation of some tumor cells |  | 
O=C(CCC(=O)Nc1ccccc1)/N=C/c1ccccc1 [Compound I-6] |  |  | 15 ± 1.8 |  | 17 ± 2.7 | 41.9
C/C=C/C/C=C/CCC(=O)[C@H]1O[C@H]1C(N)=O [Cerulenin, cerulenin, reference compound] |  |  | 18 ± 2.7 | no significant effect on the proliferation of some tumor cells | 29 ± 3.2 | 21.3
O=C(CCC(=O)Nc1ccccc1)NC(=O)c1ccccc1 [Compound I-7] |  |  | 15 ± 2.1 |  | 19 ± 1.9 | 37.7
O=C(CCCNC(=O)NCc1cc(Br)ccc1O)Nc1ccc(Br)cc1 [Compound I-3] |  |  | 14 ± 2.8 |  | 15 ± 2.5 | 41.2
CCOC(=O)CCCC(=O)Nc1ccc(Br)cc1 [Intermediate 2, Ethyl 5-(4-bromophenylamino)-5-oxopentanoate] |  |  | 18 ± 2.5 |  | 22 ± 3.1 | 22.2
O=C(CCC(=O)Nc1ccccc1)/N=C/Cc1ccccc1 [Compound I-8] |  |  | 16 ± 1.7 |  | 20 ± 3.5 | 35.2
O=C(CCCC(=O)Nc1ccc(Br)cc1)NNC(=O)c1cc(Br)ccc1O [Compound I-4] |  |  | 11 ± 1.8 |  | 14 ± 1.7 | 49
COc1ccc(Br)cc1CNC(=O)NCCCC(=O)Nc1ccc(Br)cc1 [Compound I-2] |  |  | 16 ± 2.9 |  | 21 ± 1.6 | 30.7
